This passage reports inhibition, minimal effective dose and Activity results from ChEMBL document CHEMBL3244204, “Acetylenics. 2. Synthesis and pharmacology of certain N,N-diakyl-3-phenylpropyn-2-amines. Some analogues with tryptamine-like behavioral effects in mice” (J Med Chem, 1978).

Activity calls are given as the source filed them. The calls are words filed in the database; no cut-off is given here. A value given as a limit tells only on which side of the number the result lay.

The species entered for test [1] is Rattus norvegicus. The test can be described thus: Inhibition of rat liver MAO assessed as release of 4-hydroxyquinoline from kynuramine at 3.6 x 10^-6 M.
Test [2] is filed under the species Rattus norvegicus. The test can be described thus: Inhibition of rat liver MAO assessed as release of 4-hydroxyquinoline from kynuramine at 3.6 x 10^-6 M preincubated for 10 mins.
Test [3] has as its system Mus musculus. As to the kind of experiment: Induction of gross behavioral activity in ip dosed Swiss albino mouse assessed as minimum effective dose. Type of test: functional. The conditions noted are these: read-out: MED.
The subject of test [4] is Mus musculus. The test can be described thus: Induction of gross behavioral activity in Swiss albino mouse assessed as clonic seizure of hind quarters at 50 mg/kg, ip after 10 to 15 mins. Type of test: functional, organism-based. More on the design: dose 50 mg/kg.
Test [5] has as its system Mus musculus. As to the kind of experiment: Induction of gross behavioral activity in Swiss albino mouse assessed as decrease in motor activity with some clonic seizure at 50 mg/kg, ip after 25 to 30 mins. Format: functional, organism-based. Further details: dose 50 mg/kg.
The test system of test [6] is Mus musculus. The test can be described thus: Induction of gross behavioral activity in Swiss albino mouse assessed as increase in clonic seizure of hind quarters at 25 mg/kg, ip in presence of 5HT antagonist BOL. Format: functional, organism-based. Further details: dose 25 mg/kg.
Test [7] has as its system Mus musculus. The test can be described thus: Induction of gross behavioral activity in Swiss albino mouse assessed as increase in clonic seizure of hind quarters at 25 mg/kg, ip in presence of 2 to 25 mg/kg of methysergide. Type of test: functional, organism-based.
The test system of test [8] is Mus musculus. As to the kind of experiment: Induction of gross behavioral activity in Swiss albino mouse assessed as increase in clonic seizure of hind quarters at 25 mg/kg, ip in presence of 3 mg/kg of cyprohepatidine. Format: functional, organism-based.
Test [9] deals with Mus musculus. As to the kind of experiment: Induction of gross behavioral activity in 3 mg/kg of cyprohepatidine treated Swiss albino mouse assessed as increase in clonic seizure of hind quarters at 25 mg/kg, ip treated 40 mins after cyprohepatidine administration. Type of test: functional, organism-based.

As usually defined, the inhibition is how much of the control response was suppressed. In the case of `C#CCN(C)Cc1ccccc1`, the results for the inhibition in the test filed under Rattus norvegicus [1] and in the test filed under Rattus norvegicus [2] were 45% and 78%, respectively.

As for `NCCc1c[nH]c2ccccc12` [TRYPTAMINE], in the test on Mus musculus [3], the minimal effective dose was under 25 mg/kg. Also, the result in the test on Mus musculus [4], with Mus musculus [5], with Mus musculus [7] and in the test on Mus musculus [8] was Active. Besides, the result in the test with Mus musculus [6] and with Mus musculus [9] was inactive.
